Measured values published in US10513520B2, “Sulfamide and sulfamate inhibitors of hHint1” (Regents of the University of Minnesota, priority 2016, dated 2019).
Where a name gives a salt, the structure may show the parent alone. Read-outs that look alike come from different tables or passages of the source.

What was measured:
hHint1 [1] = molecular target: T1, hHint1 (Homo sapiens (Human), UniProt P49773); experiment: Isothermal titration calorimetry (ITC) of hHint1-ligand complexes; format: binding; conditions: for Kd / ΔG / ΔH / −TΔS: ITC, hHint1; for Kd: 20° C.
Protocol: Isothermal Titration Calorimetry (ITC) ITC experiments were conducted on a MicroCal Auto-ITC200 system (GE Healthcare life sciences). […] To determine the dissociation constant of stock concentration (300-400 uM) of inhibitors was titrated with 15-20 uM of Hint1. Twenty injections of ligand were injected (injection volume 2 ul) into the protein cell. […] The in vitro binding affinity of the new series was evaluated of analogues for hHint1 using isothermal calorimetry (ITC).

[2] = Solubility (aqueous buffers, water, DMSO); format: physicochemical
From the text: Replacement of the 5′-oxygen atom in the acyl-sulfamate with a nitrogen affords an acyl-sulfamide backbone, which increases the pKa of the backbone NH by 2-3 units.

ICR mice [3] = experiment: Spared nerve injury (SNI), von Frey mechanical threshold testing; format: in vivo, mouse; conditions: for SNI-induced mechanical hypersensitivity, injection on day 7 following injury: 1 nmol intrathecally 7 days post spared nerve injury; for SNI-induced mechanical hypersensitivity, pretreatment: 1 nmol intrathecally prior to spared nerve injury
Protocol: Male and Female ICR mice (25-30 g) were given 1 nmol of TpGc prior to (Panel A) or 7 days post (Panel B) spared nerve injury. A separate cohort (Panel C) of male ICR mice (25-50 g) were given 1 nmol of compound 7 intrathecally both prior to and 7 days post spared nerve injury. All cohorts were evaluated with Von Frey mechanical threshold testing.
Male and female ICR mice were given 1 nmol of HINT1 inhibitor TpGc or 7 intrathecally either immediately prior to or 7 days following induction of neuropathic pain via spared nerve injury (Decosterd, 2000). Briefly, an incision is made into the leg of the mouse directly above the branching of the sciatic nerve. The peroneal and tibial branches of the nerve are ligated and cut while the sural branch is left intact, leading to a localized hypersensitivity on the lateral portion of the hindpaw. Von Frey mechanical testing was performed prior to surgery and for up to 7 days post surgery.

ICR mice [4] = experiment: Inhibition of morphine inhibition of NMDA-evoked scratching and biting behavior; format: in vivo, mouse; conditions: male mice, intrathecal pretreatment before morphine and NMDA
Protocol: Male ICR mice (25-30) were given TpGc (10 nmol) 10 minutes before morphine sulfate (10 nmol) intrathecally. After a period of 10 minutes, NMDA was injected intrathecally and scratching and biting behaviors were quantified. The MPE % was calculated using morphine alone as the positive control.
Male mice were given intrathecal treatment of either morphine or morphine+a HINT1 inhibitor. They were then given an intrathecal injection of NMDA and scratching and biting behaviors were counted for 1 minute. […]

hHint1 [5] = molecular target: T1, hHint1; conditions: ITC, cited from earlier work
mice [6] = conditions: icv, cited from earlier work
hHint1 [7] = molecular target: T1, hHint1; experiment: Fluorescence assay of hHint1 activity at fixed saturating substrate concentration; format: biochemical
From the text: The effect of a non-hydrolyzable nucleotide analog Bio-AMS was compared with compound 3 on the activity of hHint1 using a fluorescence assay described previously.^3
Isothermal titration calorimetry (ITC) was used to investigate the nature of non-covalent interactions on the inhibitory activity of Bio-AMS on hHint1.

ICR mice [8] = experiment: Development of morphine analgesic tolerance, tail flick assay; format: in vivo, mouse; conditions: HINT1 inhibitor+morphine intrathecally for 3 days, morphine challenge on Day 4
mice [9] = conditions: single icv administration, CCI mice, cited from earlier work
[10] = data adapted from Garzon et al.

T1 sequence (P49773 whole entry): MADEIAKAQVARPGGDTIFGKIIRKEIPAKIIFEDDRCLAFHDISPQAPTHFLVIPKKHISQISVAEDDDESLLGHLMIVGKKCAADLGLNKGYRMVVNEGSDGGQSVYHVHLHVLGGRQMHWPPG

Compound	Kd (hHint1 [1]) [nM]	SNI-induced mechanical hypersensitivity, injection on day 7 following injury (ICR mice [3])	SNI-induced mechanical hypersensitivity, pretreatment (ICR mice [3])	ED50, attenuation of morphine's inhibition of NMDA-evoked behavior (ICR mice [4]) [nM]	morphine potency and efficacy after tolerance development protocol (ICR mice [8])	stock solutions easily prepared in aqueous buffers [2]	ΔG (hHint1 [1]) [kcal/mol]	ΔH (hHint1 [1]) [kcal/mol]	−TΔS (hHint1 [1]) [kcal/mol]	further results
Nc1nc2c(ncn2C2OC(COS(=O)(=O)NC(=O)CCc3c[nH]c4ccccc34)C(O)C2O)c(=O)[nH]1 (single isomer, unassigned) [Compound 4, 5′-O—[N-(3-Indolepropionic acid)sulfamoyl] Guanosine Triethylammonium Salt]	810 ± 110	–	–	–	–	–	–	–	–	–
Nc1nc2c(ncn2[C@@H]2O[C@H](COC(=O)NCCc3c[nH]c4ccccc34)[C@@H](O)[C@H]2O)c(=O)[nH]1 [Compound 3, guanosine-5′-tryptamine carbamate]	–	transient reversal of mechanical hypersensitivity	sustained attenuation of SNI-induced mechanical hypersensitivity	0.61	equivalent potency and efficacy compared to the saline pre-treatment	–	–	–	–	aqueous solubility ([2]; in words): poor solubility; ΔG (hHint1 [5]; [10]): -4.1 ± 2.0 kcal/mol; ΔH (hHint1 [5]; [10]): -13.54 ± 1.00 kcal/mol; −TΔS (hHint1 [5]; [10]): 9.54 ± 4.17 kcal/mol; Kd (hHint1 [5]; data adapted from previously published result by Garzon et al.): 3650 ± 1000 nM; effect on development of morphine tolerance (mice [6]; listed as TpGc): reduced the development of acute tolerance; effect on morphine analgesia / antinociception (mice [6]; listed as TpGc): potentiated morphine-evoked antinociception; effect on development of morphine tolerance (mice [6]): rescues and prevents the development of NMDAR mediated morphine tolerance; effect on morphine analgesia / antinociception (mice [6]): enhances morphine analgesia; IC50 (hHint1 [7]): 25500 ± 6000 nM; mechanical allodynia (mice [9]): reduce mechanical allodynia in animals for several days; mechanical allodynia (mice [9]; listed as TpGc): significant attenuation of mechanical allodynia that persisted for several days
Nc1nc2c(ncn2[C@@H]2O[C@H](COS(=O)(=O)NC(=O)CCc3c[nH]c4ccccc34)C(O)[C@@H]2O)c(=O)[nH]1 (stereo partly drawn) [Compound 4, 5′-O—[N-(3-Indolepropionic acid)sulfamoyl] Guanosine Triethylammonium Salt]	–	–	–	–	–	up to 5 mM	-8.46 ± 0.4	-16.51 ± 0.17	8.05 ± 0.88	fold increase in binding affinity over compound 3 (hHint1 [1]; compared with compound 3): 4.5 fold
CCCC(=O)NS(=O)(=O)OC[C@H]1O[C@@H](n2cnc3c(=O)[nH]c(N)nc32)C(O)C1O (stereo partly drawn) [Compound 5]	2900 ± 250	–	–	–	–	up to 5 mM	-5.81 ± 1.0	-13.59 ± 1.12	7.71 ± 0.27	decrease in the enthalpy of binding (hHint1 [1]; compared with compound 4): ~2 kcal/mol; fold greater dissociation constant in comparison to 4 (hHint1 [1]; compared with compound 4): 3-4 fold
Nc1nc2c(ncn2[C@@H]2O[C@H](CNS(=O)(=O)NC(=O)CCc3c[nH]c4ccccc34)C(O)C2O)c(=O)[nH]1 (stereo partly drawn) [Compound 6, 5′-N—[N-(3-Indolepropionic acid)sulfamoyl] Guanosine Triethylammonium Salt]	920 ± 70	–	–	–	–	up to 5 mM	-8.24 ± 0.12	-14.75 ± 0.12	6.57 ± 0.17	–
O=C(CCc1c[nH]c2ccccc12)NS(=O)(=O)OC[C@H]1O[C@@H](n2cnc3c2ncn2ccnc32)[C@@H](O)C1O (stereo partly drawn) [Compound 7, 5′-O—[N-(3-Indolepropionic acid)sulfamoyl]EthenoAdenosine Triethylammonium Salt]	–	transient reversal that resolved at 4 hours post injection	did not lead to an attenuation of pain behavior	0.47	equivalent potency and efficacy compared to the saline pre-treatment	≤ 20 mM	–	–	–	–
